Entries after “also recorded” stand apart in the source; their conditions may differ.
Tested on: adult subjects with Major Depressive Disorder
Assay: Phase 3 open-label 1-year study: safety and tolerability (TEAEs, SAEs, C-SSRS)
Assay type: in vivo, human
Conditions: for Subjects reporting TEAEs leading to dose reduction: Low dose cohort; for Subjects with Treatment Cycle Period TEAE / Subjects with Treatment Period TEAE: Study Period 1 only
Description: Primary Objective: To determine the safety and tolerability of initial treatment and re-treatment(s) with Compound (1) in adults with Major Depressive Disorder (MDD) currently experiencing a major depressive episode (MDE) over a 1-year period.
Study Population: Subjects were 18-75 years old, diagnosed with major depressive disorder (MDD) with a MADRS total score of ≥28 and a HAM-D total score of ≥20 at Screening and Day 1 (prior to dosing).
Treatment Groups: The 30 mg and 50 mg dose groups were separated by time of enrollment. The study is comprised of two cohorts: one with Compound (1) 30 mg as a starting dose (30 mg Cohort: n=725), an initial cohort with Compound (1) 50 mg as a starting dose (50 mg Cohort: n=199). A patient receiving Compound (1) 30 mg could be dose reduced to 20 mg and patients receiving Compound (1) 50 mg could be dose reduced to 40 mg (based on tolerability). In all cohorts, Compound (1) is self-administered by patients as an oral therapy once nightly with food for 14 days.
The study has a Screening Period of up to 28 days, a 14-day Treatment Period, and up to 1 year of Follow-up. FIG. 1 is an overview of the study.
Antidepressants were permitted provided subjects were on a stable dose for at least 60 days prior to Day 1 and agreed to continue on the stable dose through the follow-up period (Day 42). Initiation of new antidepressants or any other medications that may potentially have an impact on efficacy or safety endpoints were not allowed between screening and completion of the Day 42 assessments.
Eligible subjects were given Compound (1)—to be taken at home in the evening with meal.
Subjects who continued in the Observation Period were monitored remotely via PHQ-9 assessment every two weeks. If PHQ-9 score was >=10 at any assessment, PHQ-9 assessment was switch to every week until the score came down below 10 or the subject was dosed with Compound (1) in a subsequent cycle, whichever was earlier. A subject was to come back to the site for HAM-D assessment within a week of PHQ-9 score >=10; if the HAM-D total score >=20 and at least 56 days had elapsed since the last dose of Compound (1), another dosing cycle of Compound (1) were to start. If any of these criteria were not met, the subject couldn't be treated with Compound (1) at that time. Without the trigger of PHQ-9>=10 the subject was to have a clinic visit every 8 weeks. A subject could have at most 5 cycles of treatment within a year. FIG. 2 is a depiction of the eligibility criteria of the study.
Dose reduction from 30 mg to 20 mg or 50 mg to 40 mg was allowed in any treatment cycle if the safety and/or tolerability of the subject so warrants. […] Subjects who dose reduced from 30 mg to 20 mg still started with 30 mg in the next treatment cycle.
The cohorts pertaining to the different doses that the subjects received were defined as following: • 50 mg cohort: This cohort includes subjects who have initiated treatment with 50 mg and received re-treatment with 50 mg only. • 30 mg cohort: This cohort includes subjects who have initiated treatment with 30 mg regardless of the dose they have received in re-treatments. • Low dose cohort: This cohort includes subjects who have initiated treatment with 30 mg and received re-treatment with 30 mg only. • Dose switch cohort: This cohort includes subjects who have received initial treatment with 30 mg and at least one subsequent re-treatment with 50 mg. • Study Period X: starts on the date of the first dose of Compound (1) in cycle X and goes up to one day prior to the first dose of the next cycle. […]

[1] = Low Dose Cohort, ATD use at period-specific baseline No, Study Period 3
[2] = Low Dose Cohort, ATD use at period-specific baseline No, Study Period 4
[3] = Low Dose Cohort, ATD use at period-specific baseline No, Study Period 5
[4] = Low Dose Cohort, ATD use at period-specific baseline Yes, Study Period 1
[5] = Low Dose Cohort, ATD use at period-specific baseline Yes, Study Period 2
[6] = Low Dose Cohort, ATD use at period-specific baseline Yes, Study Period 3
[7] = Low Dose Cohort, ATD use at period-specific baseline Yes, Study Period 4
[8] = Low Dose Cohort, ATD use at period-specific baseline Yes, Study Period 5
[9] = overall study population (Example 5)

With `C[C@@]1(O)CC[C@H]2[C@H](CC[C@@H]3[C@@H]2CC[C@]2(C)[C@@H](C(=O)Cn4cc(C#N)cn4)CC[C@@H]32)C1` [Compound (1), 1-(2-((3R,5R,8R,9R,10S,13S,14S,17S)-3-hydroxy-3,13-dimethylhexadecahydro-1H-cyclopenta[a]phenanthren-17-yl)-2-oxoethyl)-1H-pyrazole-4-carbonitrile] the “Subjects with at least one Treatment period AE” value (Low Dose Cohort, ATD use at period-specific baseline No, Study Period 2) was 51 (43.2%), the “Subjects with a TEAE leading to study drug discontinuation” value (from here on “Subjects with a TEAE leading”) [1] was 0% and the “Subjects with a Treatment cycle period AE leading to study withdrawal” value [1] was 1 (2.4%). The “Subjects with at least one TEAE” value [1] was 21 (51.2%), the “Subjects with at least one Treatment cycle period TEAE” value [1] was 14 (34.1%) and the “Subjects with at least one Treatment cycle period serious TEAE” value [1] was 1 (2.4%). For the same compound, the “Subjects with at least one Treatment cycle period severe TEAE” value [1] was 2 (4.9%), the “Subjects with at least one Treatment period AE” value [1] was 12 (29.3%) and the “Subjects with a TEAE leading” value [2] was 0%. For the same compound, the “Subjects with a Treatment cycle period AE leading to study withdrawal” value [2] was 0%, the “Subjects with at least one TEAE” value [2] was 8 (33.3%) and the “Subjects with at least one Treatment cycle period TEAE” value [2] was 6 (25.0%). For the same compound, the “Subjects with at least one Treatment cycle period serious TEAE” value [2] was 0%, the “Subjects with at least one Treatment cycle period severe TEAE” value [2] was 0% and the “Subjects with at least one Treatment period AE” value [2] was 5 (20.8%). For the same compound, the “Subjects with a TEAE leading” value [3] was 0%, the “Subjects with a Treatment cycle period AE leading to study withdrawal” value [3] was 0% and the “Subjects with at least one TEAE” value [3] was 3 (33.3%). For the same compound, the “Subjects with at least one Treatment cycle period TEAE” value [3] was 2 (22.2%), the “Subjects with at least one Treatment cycle period serious TEAE” value [3] was 0% and the “Subjects with at least one Treatment cycle period severe TEAE” value [3] was 0%. For the same compound, the “Subjects with at least one Treatment period AE” value [3] was 2 (22.2%), the “Subjects with a TEAE leading” value [4] was “(1.5%)” and the “Subjects with a Treatment cycle period AE leading to study withdrawal” value [4] was “(1.9%)”. The “Subjects with at least one TEAE” value [4] was “(57.9%)”, the “Subjects with at least one Treatment cycle period TEAE” value [4] was “(50.4%)” and the “Subjects with at least one Treatment cycle period serious TEAE” value [4] was “(0.4%)”. For the same compound, the “Subjects with at least one Treatment cycle period severe TEAE” value [4] was “(2.3%)”, the “Subjects with at least one Treatment period AE” value [4] was “(47.4%)” and the “Subjects with a TEAE leading” value [5] was 1 (1.1%). For the same compound, the “Subjects with a Treatment cycle period AE leading to study withdrawal” value [5] was 1 (1.1%), the “Subjects with at least one TEAE” value [5] was 48 (54.5%) and the “Subjects with at least one Treatment cycle period TEAE” value [5] was 36 (40.9%). For the same compound, the “Subjects with at least one Treatment cycle period serious TEAE” value [5] was 1 (1.1%), the “Subjects with at least one Treatment cycle period severe TEAE” value [5] was 2 (2.3%) and the “Subjects with at least one Treatment period AE” value [5] was 29 (33.0%). The “Subjects with a TEAE leading” value [6] was 0%, the “Subjects with a Treatment cycle period AE leading to study withdrawal” value [6] was 0% and the “Subjects with at least one TEAE” value [6] was 19 (42.2%). The “Subjects with at least one Treatment cycle period TEAE” value [6] was 14 (31.1%), the “Subjects with at least one Treatment cycle period serious TEAE” value [6] was 0% and the “Subjects with at least one Treatment cycle period severe TEAE” value [6] was 0%. The “Subjects with at least one Treatment period AE” value [6] was 12 (26.7%), the “Subjects with a TEAE leading” value [7] was 0% and the “Subjects with a Treatment cycle period AE leading to study withdrawal” value [7] was 0%. For the same compound, the “Subjects with at least one TEAE” value [7] was 7 (36.8%), the “Subjects with at least one Treatment cycle period TEAE” value [7] was 3 (15.8%) and the “Subjects with at least one Treatment cycle period serious TEAE” value [7] was 0%. For the same compound, the “Subjects with at least one Treatment cycle period severe TEAE” value [7] was 0%, the “Subjects with at least one Treatment period AE” value [7] was 3 (15.8%) and the “Subjects with a TEAE leading” value [8] was 0%. For the same compound, the “Subjects with a Treatment cycle period AE leading to study withdrawal” value [8] was 0%, the “Subjects with at least one TEAE” value [8] was 6 (54.5%) and the “Subjects with at least one Treatment cycle period TEAE” value [8] was 4 (36.4%). For the same compound, the “Subjects with at least one Treatment cycle period serious TEAE” value [8] was 0%, the “Subjects with at least one Treatment cycle period severe TEAE” value [8] was 0% and the “Subjects with at least one Treatment period AE” value [8] was 4 (36.4%). For the same compound, the “Proportion of subjects reporting TEAEs” value (Low Dose cohort, as printed in b423 (451/677)) was 66.6%, the “SAEs considered probably or possibly related to the study drug” value (Low dose cohort (30 mg only), treatment cycle 1) was “none” and the “Subjects reporting TEAEs leading to dose reduction” value (Cycle 1) was 3.4%. The “Subjects reporting TEAEs leading to dose reduction” value (Cycle 2) was 4.4%, the “Subjects reporting TEAEs leading to dose reduction” value (Cycle 3) was 2.3% and the “Subjects reporting TEAEs leading to dose reduction” value (Cycle 4 (0/43)) was 0%. For the same compound, the “Subjects reporting TEAEs leading to dose reduction” value (Cycle 5) was 10%, the “Subjects reporting TEAEs leading to dose reduction” value (overall (32/645)) was 5.0% and the “Subjects with at least one TEAE” value (Overall (N = 924)) was 618 (66.9%). For the same compound, the “Subjects with at least one TEAE leading to study drug discontinuation” value (Overall (N = 924)) was 32 (3.5%), the “Subjects with at least one TEAE leading to study withdrawal” value (Overall (N = 924)) was 46 (5.0%) and the “Subjects with at least one serious TEAE” value (Overall (N = 924)) was 27 (2.9%). For the same compound, the “Subjects with at least one severe TEAE” value (Overall (N = 924)) was 60 (6.5%), the “Subjects with Treatment Cycle Period TEAE” value (30 mg Cohort (N = 725)) was 368 (50.8%) and the “Subjects with Treatment Period TEAE” value (30 mg Cohort (N = 725)) was 348 (48.0%). For the same compound, the “Subjects with Treatment Cycle Period TEAE” value (50 mg Cohort (N = 199)) was 117 (58.8%), the “Subjects with Treatment Period TEAE” value (50 mg Cohort (N = 199)) was 108 (54.3%) and the “Subjects with Treatment Cycle Period TEAE” value (Dose Switch Cohort (N = 80)) was 31 (38.8%). For the same compound, the “Subjects with Treatment Period TEAE” value (Dose Switch Cohort (N = 80)) was 28 (35.0%), the “Subjects with Treatment Cycle Period TEAE” value (Low Dose Cohort (N = 645)) was 337 (52.2%) and the “Subjects with Treatment Period TEAE” value (Low Dose Cohort (N = 645)) was 320 (49.6%). The “Subjects with Treatment Cycle Period TEAE” value (Overall (N = 924)) was 485 (52.5%), the “Subjects with Treatment Period TEAE” value (Overall (N = 924)) was 456 (49.4%) and the “Severity of the majority of TEAEs” value (all dose cohorts) was “mild to moderate; also recorded: mild or moderate”. The “Suicidal ideation or suicidal behavior compared to baseline (C-SSRS)” value (any study period or dose cohort) was “no signal for increased suicidal ideation or suicidal behavior”, the Tolerability (first course of Compound (1) 30 mg) was “generally well-tolerated” and the “Most common AEs that led to dose reduction” value (in vivo) was “Somnolence, Dizziness, Sedation and Headache”. For the same compound, the TEAE diarrhea [9] was 6.3%, the TEAE dizziness [9] was 9.1% and the TEAE dry mouth [9] was 5.5%. For the same compound, the TEAE headache [9] was 13.9%, the TEAE insomnia [9] was 5.4% and the TEAE sedation [9] was 8.7%. For the same compound, the TEAE somnolence [9] was 12.8%, the “TEAE upper respiratory infection” value [9] was 6.3% and the “Overall safety observations with 50 mg versus safety findings with 30 mg” value (subjects receiving Compound (1) 50 mg) was “comparable”. For the same compound, the “Subjects reporting SAEs” value (treatment cycle 1, 50 mg cohort (5/199)) was 2.5% and the “Subjects reporting SAEs” value (treatment cycle 1, Low Dose cohort (6/645)) was 0.9%.

From patent US20240245711A1, “A 19-NOR C3,3-DISUBSTITUTED C21-N-PYRAZOLYL STEROID FOR THE TREATMENT OF MAJOR DEPRESSIVE DISORDER” (Sage Therapeutics, Inc., priority 2021, published 2024)
